ChEMBL document CHEMBL4842328, “A cyclic peptide inhibitor of the SARS-CoV-2 main protease” (Eur J Med Chem, 2021)
Activity calls are given as the source filed them. The rule behind the calls is not given here. Numbered stars: 1 amine (or outer) side, 2 acyl side, 3 side chain; on linkers, the order of the positions; unused ones are H or OH. Square brackets hold non-standard residues; d marks the D form. Peptide text beside a SMILES is read from it. * marks the point of attachment. X2 = O=C(Cc1ccc(CCN[*:1])cc1)[*:2]; X1 = NC(=O)Cc1ccc(CCN*)cc1

Key:
[1] = Inhibition of SARS-CoV-2 main protease using K(Dabcy1)-TSAVLQSGFRKM-E-Edans-NH2 as substrate preincubated with enzyme for 30 mins followed by substrate addition by FRET assay; design: species or system Severe acute respiratory syndrome coronavirus 2
HEK293 = assay: Cytotoxicity against human HEK293 assessed as reduction in cell viability upto 256 uM after 72 hrs by LDH assay; format: cell-based; conditions: hek293, 72 h
[2] = Stability of the compound assessed as SARS-CoV-2 main protease-mediated compound cleavage at 187.5 uM measured after 4 hrs by LC/MS analysis; format: ADME; conditions: severe acute respiratory syndrome coronavirus 2, 4 h
[3] = tested on: Severe acute respiratory syndrome coronavirus 2; assay: Inhibition of SARS-CoV-2 main protease using K(Dabcy1)-TSAVLQSGFRKM-E-Edans-NH2 as substrate at <=750 uM preincubated with enzyme for 30 mins followed by substrate addition by FRET assay; conditions: dose microM <=750, time 30.0 min

## NCCCC[C@@H]1NC(=O)[C@H](CO)NC(=O)[C@H](CCC(N)=O)NC(=O)[C@@H](Cc2ccccc2)NC(=O)Cc2ccc(cc2)CCNC1=O (cyclo([dF]QSK[X2]))
[1]
  IC50: > 1500 µM

## NCCCC[C@@H]1NC(=O)[C@H](CO)NC(=O)[C@H](CCC(N)=O)NC(=O)[C@H](Cc2ccccc2)NC(=O)Cc2ccc(cc2)CCNC1=O.O=C(O)C(F)(F)F (cyclo(FQSK[X2]))
HEK293
  Activity: Non-Toxic
[2]
  Stabilty: Stable

## CC(=O)N[C@@H](Cc1ccccc1)C(=O)N[C@@H](CCC(N)=O)C(=O)N[C@@H](CO)C(=O)N[C@@H](CCCCN)C(=O)NCCc1ccc(CC(N)=O)cc1 (Ac-FQSK-X1)
[3]
  inhibition: inactive
[1]
  IC50: > 1500 µM
